Consider 30 compounds from patent US7550456B2, “Substituted aryl cycloalkanoyl derivatives and methods of their use” (Wyeth, priority 2003, dated 2009).

As a reminder, the inhibition is the relative decrease from the control value, in per cent. For orientation: EC50 means the concentration giving half of the maximal effect. Read a high EC50 as a less potent agent.

The target in the assay is T1, human hNET (Homo sapiens, UniProt P23975).
T1 construct: expressed in transfected cells; host or cells: MDCK-Net6 (MDCK cells, stably transfected)
T1 sequence (P23975 whole entry): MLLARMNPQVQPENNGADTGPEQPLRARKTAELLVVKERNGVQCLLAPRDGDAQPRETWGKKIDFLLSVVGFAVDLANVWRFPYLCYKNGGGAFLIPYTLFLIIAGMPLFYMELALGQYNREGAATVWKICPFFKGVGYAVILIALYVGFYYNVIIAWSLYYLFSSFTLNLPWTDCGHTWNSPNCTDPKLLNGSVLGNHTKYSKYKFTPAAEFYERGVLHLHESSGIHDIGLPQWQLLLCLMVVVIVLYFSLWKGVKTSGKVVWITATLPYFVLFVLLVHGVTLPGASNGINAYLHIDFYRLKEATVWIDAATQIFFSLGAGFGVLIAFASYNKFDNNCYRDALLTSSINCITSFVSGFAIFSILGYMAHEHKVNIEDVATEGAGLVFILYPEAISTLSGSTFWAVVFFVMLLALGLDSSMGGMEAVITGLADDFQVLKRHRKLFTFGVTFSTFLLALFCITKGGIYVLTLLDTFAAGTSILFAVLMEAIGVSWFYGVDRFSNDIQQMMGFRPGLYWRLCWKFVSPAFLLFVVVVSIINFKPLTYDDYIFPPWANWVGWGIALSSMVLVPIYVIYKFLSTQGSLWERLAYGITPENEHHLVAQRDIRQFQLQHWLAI
In words: Norepinephrine (NE) uptake assay in MDCK-Net6 cells. It is filed as cell-based. The settings on record: for EC50: test range 1 to 10,000 nM. As to the method:
Cells were plated at 300,000/T75 flask and cells were split twice weekly. […] Cells were plated at 250,000 cells/T75 flask and split twice weekly.
Norepinephrine (NE) Uptake Assay
On day 1, cells were plated at 3,000 cells/well in growth medium and maintained in a cell incubator (37° C., 5% CO2). On day 2, growth medium was replaced with 200 μl of assay buffer (25 mM HEPES; 120 mM NaCl; 5 mM KCl; 2.5 mM CaCl2; 1.2 mM MgSO4; 2 mg/ml glucose (pH 7.4, 37° C.)) containing 0.2 mg/ml ascorbic acid and 10 μM pargyline. Plates containing cells with 200 μl of assay buffer were equilibrated for 10 minutes at 37° C. prior to addition of compounds. A stock solution of desipramine was prepared in DMSO (10 mM) and delivered to triplicate wells containing cells for a final test concentration of 1 μM. Data from these wells were used to define non-specific NE uptake (minimum NE uptake). Test compounds were prepared in DMSO (10 mM) and diluted in assay buffer according to test range (1 to 10,000 nM). Twenty-five microliters of assay buffer (maximum NE uptake) or test compound were added directly to triplicate wells containing cells in 200 μl of assay buffer. The cells in assay buffer with test compounds were incubated for 20 minutes at 37° C. […] The reaction was terminated by decanting the supernatant from the plate. The plates containing cells were washed twice with 200 μl assay buffer (37° C.) to remove free radioligand. The plates were then inverted, left to dry for 2 minutes, then reinverted and air-dried for an additional 10 minutes. The cells were lysed in 25 μl of 0.25 N NaOH solution (4° C.), placed on a shake table and vigorously shaken for 5 minutes. After cell lysis, 75 μl of scintillation cocktail was added to each well and the plates were sealed with film tape. The plates were returned to the shake table and vigorously shaken for a minimum of 10 minutes to ensure adequate partitioning of organic and aqueous solutions. The plates were counted in a Wallac Microbeta counter (PerkinElmer) to collect the raw cpm data.
For each experiment, a data stream of cpm values collected from the Wallac Microbeta counter was downloaded to a Microsoft Excel statistical application program. Calculations of EC50 values were made using the transformed-both-sides logistic dose response program written by Wyeth Biometrics Department.

[1] abbreviates: 1 μM test compound, [3H]NE uptake, read-out: % Inhibition @ 1 μM (hNET).
Setting [2] is: MDCK-Net6, read-out: % Inhibition @ 1 μM (hNET), 1 μM test compound, [3H]NE uptake.

Structures can show the parent of a compound that is named as a salt. Where two headings read alike, the source gives them in different places.

In the case of `CN1CCN(CC(c2ccc(-c3ccccc3)cc2)C2(O)CCCCC2)CC1` (stereo not shown) [Example 158, 1-[1-(1,1′-biphenyl-4-yl)-2-(4-methylpiperazin-1-ylethyl]cyclohexanoldihydrochloride], the inhibition at 1 µM under setting [1] turned out to be 57%.

As to `N#Cc1cccc(C(CN2CCNCC2)C2(O)CCCCC2)c1` (stereo not shown) [Example 160, 1-[1-(3-cyanophenyl)-2-piperazin-1-ylethyl]cyclohexanol dihydrochloride], the inhibition at 1 µM under setting [1] worked out at 50%.

For `CN1CCN(CC(c2cccc(C#N)c2)C2(O)CCCCC2)CC1` (stereo not shown) [Example 161, 1-[1-(3-cyanophenyl)-2-(4-methylpiperazin-1-yl)ethyl]cyclohexanol dihydrochloride], under setting [1], the inhibition at 1 µM stood at 70%. Where the note is “[3H]NE uptake”, this compound had an EC50 of 220 nM.

As to `C=Cc1cccc(C(CN2CCNCC2)C2(O)CCCCC2)c1` (stereo not shown) [Example 162, 1-[2-piperazin-1-yl-1-(3-vinylphenyl)ethyl]cyclohexanol dihydrochloride], the inhibition at 1 µM under setting [1] is 78%. The EC50 ([3H]NE uptake) worked out at 410 nM.

`C=Cc1ccc(C(CN2CCNCC2)C2(O)CCCCC2)cc1` (stereo not shown) [Example 163, 1-[2-piperazin-1-yl-1-(4-vinylphenyl)ethyl]cyclohexanol dihydrochloride]: the inhibition at 1 µM under setting [1] came to 17%.

`CC#Cc1ccc(C(CN2CCNCC2)C2(O)CCCCC2)cc1` (stereo not shown) [Example 164, 1-[2-piperazin-1-yl-1-(4-prop-1-ynylphenyl)ethyl]cyclohexanol dihydrochloride]: the inhibition at 1 µM under setting [1] worked out at 56%.

With `OC1(C(CN2CCNCC2)c2ccc(-c3ccccc3Cl)cc2)CCCCC1` (stereo not shown) [Example 165, 1-[1-(2′-chloro-1,1′-biphenyl-4-yl)-2-piperazin-1-ylethyl]cyclohexanol dihydrochloride], the inhibition at 1 µM under setting [1] amounted to 13%.

Turning to `OC1(C(CN2CCNCC2)c2ccc(-c3cccc(F)c3)cc2)CCCCC1` (stereo not shown) [Example 166, 1-[1-(3′-fluoro-1,1′-biphenyl-4-yl)-2-piperazin-1-ylethyl]cyclohexanol dihydrochloride], under setting [1], the inhibition at 1 µM worked out at 48%.

Regarding `OC1(C(CN2CCNCC2)c2ccc(-c3cccc(Cl)c3)cc2)CCCCC1` (stereo not shown) [Example 167, 1-[1-(3′-chloro-1,1′-biphenyl-4-yl)-2-piperazin-1-ylethyl]cyclohexanol dihydrochloride], under setting [1], the inhibition at 1 µM worked out at 25%.

`N#Cc1cccc(-c2ccc(C(CN3CCNCC3)C3(O)CCCCC3)cc2)c1` (stereo not shown) [Example 168, 1-[1-(3′-cyano-1,1′-biphenyl-4-yl)-2-piperazin-1-ylethyl]cyclohexanol dihydrochloride]: the inhibition at 1 µM under setting [1] is 66%. The same compound showed an EC50 ([3H]NE uptake) of 180 nM.

Take `O=[N+]([O-])c1cccc(-c2ccc(C(CN3CCNCC3)C3(O)CCCCC3)cc2)c1` (stereo not shown) [Example 169, 1-[1-(3′-nitro-1,1′-biphenyl-4-yl)-2-piperazin-1-ylethyl]cyclohexanol dihydrochloride]: the inhibition at 1 µM under setting [1] was 69%. This compound showed an EC50 ([3H]NE uptake) of 850 nM.

Take `COc1cccc(-c2ccc(C(CN3CCNCC3)C3(O)CCCCC3)cc2)c1` (stereo not shown) [Example 170, 1-[1-(3′-methoxy-1,1′-biphenyl-4-yl)-2-piperazin-1-ylethyl]cyclohexanol dihydrochloride]: the inhibition at 1 µM under setting [1] was found to be 19%.

Take `OC1(C(CN2CCNCC2)c2ccc(-c3cccc(OC(F)(F)F)c3)cc2)CCCCC1` (stereo not shown) [Example 171, 1-{2-piperazin-1-yl-1-[3′-(trifluoromethoxy)-1,1′-biphenyl-4-yl]ethyl}cyclohexanol dihydrochloride]: the inhibition at 1 µM under setting [1] came out at 32%.

`OC1(C(CN2CCNCC2)c2ccc(-c3ccc(Cl)cc3)cc2)CCCCC1` (stereo not shown) [Example 172, 1-[1-(4′-chloro-1,1′-biphenyl-4-yl)-2-piperazin-1-ylethyl]cyclohexanol dihydrochloride]: the inhibition at 1 µM under setting [1] was found to be 55%.

In the case of `OC1(C(CN2CCNCC2)c2ccc(-c3ccc(Cl)c(Cl)c3)cc2)CCCCC1` (stereo not shown) [Example 173, 1-[1-(3′,4′-dichloro-1,1′-biphenyl-4-yl)-2-piperazin-1-ylethyl]cyclohexanol dihydrochloride], under setting [1], the inhibition at 1 µM turned out to be 35%.

With `OC1(C(CN2CCNCC2)c2ccc(-c3ccsc3)cc2)CCCCC1` (stereo not shown) [Example 174, 1-[2-piperazin-1-yl-1-(4-thien-3-ylphenyl)ethyl]cyclohexanol dihydrochloride], the inhibition at 1 µM under setting [1] was 2%.

Consider `CN1CCN(CC(c2ccc(-c3ccccc3Cl)cc2)C2(O)CCCCC2)CC1` (stereo not shown) [Example 175, 1-[1-(2′-chloro-1,1′-biphenyl-4-yl)-2-(4-methylpiperazin-1-yl)ethyl]cyclohexanol dihydrochloride], for which the inhibition at 1 µM under setting [1] amounted to 20%.

On to `CN1CCN(CC(c2ccc(-c3cccc(Cl)c3)cc2)C2(O)CCCCC2)CC1` (stereo not shown) [Example 176, 1-[1-(3′-chloro-1,1′-biphenyl-4-yl)-2-(4-methylpiperazin-1-yl)ethyl]cyclohexanol dihydrochloride], for which, under setting [1], the inhibition at 1 µM stood at 28%.

In the case of `CN1CCN(CC(c2ccc(-c3cccc(C#N)c3)cc2)C2(O)CCCCC2)CC1` (stereo not shown) [Example 177, 1-[1-(3′-cyano-1,1′-biphenyl-4-yl)-2-(4-methylpiperazin-1-yl)ethyl]cyclohexanol dihydrochloride], under setting [1], the inhibition at 1 µM was determined as 54%.

On to `CN1CCN(CC(c2ccc(-c3cccc([N+](=O)[O-])c3)cc2)C2(O)CCCCC2)CC1` (stereo not shown) [Example 178, 1-[2-(4-methylpiperazin-1-yl)-1-(3′-nitro-1,1′-biphenyl-4-yl)ethyl]cyclohexanol dihydrochloride], for which, under setting [1], the inhibition at 1 µM is 33%.

For the compound `COc1cccc(-c2ccc(C(CN3CCN(C)CC3)C3(O)CCCCC3)cc2)c1` (stereo not shown) [Example 179, 1-[1-(3′-methoxy-1,1′-biphenyl-4-yl)-2-(4-methylpiperazin-1-yl)ethyl]cyclohexanol dihydrochloride], the inhibition at 1 µM under setting [1] worked out at 27%.

With `CN1CCN(CC(c2ccc(-c3ccc(F)cc3)cc2)C2(O)CCCCC2)CC1` (stereo not shown) [Example 180, 1-[1-(4′-fluoro-1,1′-biphenyl-4-yl)-2-(4-methylpiperazin-1-yl)ethyl]cyclohexanol dihydrochloride], under setting [1], the inhibition at 1 µM is 47%.

In the case of `Cc1ccc(-c2ccc(C(CN3CCN(C)CC3)C3(O)CCCCC3)cc2)cc1` (stereo not shown) [Example 181, 1-[1-(4′-methyl-1,1′-biphenyl-4-yl)-2-(4-methylpiperazin-1-yl)ethyl]cyclohexanol dihydrochloride], the inhibition at 1 µM under setting [1] amounted to 31%.

Take `OC1(C(CN2CCNCC2)c2ccc(-c3cccc(Cl)c3)cc2)CCC1` (stereo not shown) [Example 182, 1-[1-(3′-chloro-1,1′-biphenyl-4-yl)-2-piperazin-1-ylethyl]cyclobutanol dihydrochloride]: the inhibition at 1 µM under setting [1] came to 43%.

As to `OC1(C(CN2CCNCC2)c2ccc(-c3cccc(OC(F)(F)F)c3)cc2)CCC1` (stereo not shown) [Example 183, 1-{2-piperazin-1-yl-1-[3′-(trifluoromethoxy)-1,1′-biphenyl-4-yl]ethyl}cyclobutanol dihydrochloride], the inhibition at 1 µM under setting [1] came out at 16%.

On to `OC1(C(CN2CCNCC2)c2ccc(-c3ccc(Cl)c(Cl)c3)cc2)CCC1` (stereo not shown) [Example 184, 1-[1-(3′,4′-dichloro-1,1′-biphenyl-4-yl)-2-piperazin-1-ylethyl]cyclobutanol dihydrochloride], for which the inhibition at 1 µM under setting [1] turned out to be 40%.

Take `OC1(C(CN2CCNCC2)c2ccc(-c3cc(Cl)cc(Cl)c3)cc2)CCC1` (stereo not shown) [Example 185, 1-[1-(3′,5′-dichloro-1,1′-biphenyl-4-yl)-2-piperazin-1-ylethyl]cyclobutanol dihydrochloride]: the inhibition at 1 µM under setting [1] came to 27%.

Regarding `OC1([C@H](CN2CCNCC2)c2cccc(OC(F)(F)F)c2)CCCCC1` [Example 243, 1-{(1S)-2-piperazin-1-yl-1-[3-(trifluoromethoxy)phenyl]ethyl}cyclohexanol dihydrochloride], the “% Inhibition @ 1 μM (hNET)” value (1 μM test compound, [3H]NE uptake, dihydrochloride, 1 µM) is on record as 91%.

As for `CN1CCN(C[C@H](c2cccc(OC(F)(F)F)c2)C2(O)CCCCC2)CC1` [Example 245, 1-{(1S)-2-(4-methylpiperazin-1-yl)-1-[3-(trifluoromethoxy)phenyl]ethyl}cyclohexanol dihydrochloride], the inhibition at 1 µM under setting [2] amounted to 88%.

As to `CN1CCN(C[C@@H](c2cccc(OC(F)(F)F)c2)C2(O)CCCCC2)CC1` [Example 246, 1-{(1R)-2-(4-methylpiperazin-1-yl)-1-[3-(trifluoromethoxy)phenyl]ethyl}cyclohexanol dihydrochloride], under setting [2], the inhibition at 1 µM was 7.4%.
